Results as given in US9480662B1 (priority 2015, dated 2016).

Legend:
[1] = system: postmenopausal hysterectomized patients with atrophic vaginitis; settings: 3 months of vaginal suppository, 4 patients
Method: The primary efficacy endpoints were normalization of vaginal pH and improvement in vaginal dryness symptom. Safety assessments consisted of monitoring and recording all adverse events and serious adverse events. […] The blood tests were measured after 5 hours after vaginal administration.

female rabbits = assay: 28-day intravaginal irritation study, modified Draize vaginal scoring; type: in vivo, New Zealand White rabbit
Method: The testing was conducted following once daily intravaginal administration to female rabbits for 28 days to provide evaluation of the reversibility, progression, or delayed appearance of any observed changes following a 14-day postdose observation period. The animal model most commonly used to evaluate safety of vaginally administered products is the rabbit and the ovariectomized rat. However, the rabbit is considered the more sensitive model, and thus, was selected for this study.
Assessment of toxicity and/or irritation was based on mortality, clinical observations, vaginal irritation scores, body weight, physical examinations; clinical pathology, anatomic pathology, and histopathological grading of vaginal tissues. Treatment-related microscopic findings occurred in the proximal, mid, and distal vagina.
A total of 26 female experimentally naïve New Zealand White Hra:(NZW)SPF albino rabbits (approximately 7.5 months of age at receipt) were received from Covance Research Products, Greenfield, Ind. During the 9-day acclimation period, the animals were observed daily with respect to general health and any signs of disease.
The vaginal region of the animals was evaluated for signs of irritation using a modified Draize scoring system as presented in the following table. Evaluations were conducted prior to each daily dose and daily during the recovery period. Any abnormalities observed during this examination were documented as a detailed clinical observation. A score of “1” or above was confirmed by a member of the veterinary staff.

[2] = system: postmenopausal hysterectomized patients with atrophic vaginitis; assay: Pilot study of tamoxifen citrate vaginal suppository: self-assessment of vaginal dryness (VAS); type: in vivo, human
Method: (§1) Methodology. Open-label prospective cohort study. Postmenopausal women with atrophic vaginitis were confirmed by vaginal pH. At baseline, vaginal pH and measure of their subjective vaginal dryness based on a VAS vaginal dryness. Four subjects were treated with vaginal suppositories of tamoxifen citrate for three months. After eight weeks of treatment, subjects had pharmacokinetic studies of the vaginal suppository.
(§2) Research Design. Healthy women with atrophic vaginitis were recruited to this study. To be eligible to enroll in the study, subjects underwent one screening visit. This visit was to determine the subject's vaginal pH and to measure of their subjective vaginal dryness based on a VAS. Once the subject met eligibility criteria, they received study medication.
(§3) Subjects received supplies of the study drug every six weeks.
(§4) Duration of Treatment. Participants were given the vaginal suppository every day for one week and then two times per week thereafter for 3 months. They were told how to insert the test drug (using the applicator, place the study drug deep into the vagina) and the dosing schedule.
(§5) Statistical Methods. The primary endpoints are changes in the self-assessment of vaginal dryness and vaginal pH defined as the difference between the baseline and the 3-month measurements. Descriptive statistics provided for the continuous study endpoints will include mean, median, standard deviation, and 95% confidence intervals. Descriptive statistics provided for categorical endpoints will include frequencies, percents, and 95% confidence intervals. Missing values of a variable will be imputed using the last observed value for the participant. Descriptive statistics will be provided with and without imputation of missing values.

[3] = system: postmenopausal hysterectomized patients with atrophic vaginitis; assay: Pilot study of tamoxifen citrate vaginal suppository: vaginal pH; type: in vivo, human
Method: as §1, §2, §3, §4, §5

in vivo = assay: in vivo
Method: The low dose of 1 mg represents the largest potential human dose on an mg/kg basis. The high dose of 20 mg represents the largest potential total human dose unadjusted for body weight.
Pharmacokinetic parameters were determined by non-compartmental methods using Phoenix™ WinNonlin® (Version 6.3.0) Model: Plasma Data, Extravascular Administration for individual serial sample collection data (Pharsight Corporation). Area under the curve values were calculated using the linear trapezoidal rule with linear interpolation. […] Nominal sample collection time was used for the analysis unless the actual sample collection time exceeded the allowable collection window for the respective time; in which case, the actual sample collection time was used. Pharmacokinetic parameter data manipulation was performed using Excel 2010 (Microsoft Corporation).
Pharmacokinetic parameters determined were defined as follows: • Cmax: Maximum observed concentration occurring at Tmax. Tmax: Time of maximum observed concentration. • AUC0-t: Area under the curve from the time of dosing to the time of the last observation.

[4] = oral, cited from earlier work
[5] = 20 mg vaginal suppository daily for one week then twice per week, month 3, 4 subjects
[6] = 20 mg vaginal suppository, month 3 versus enrollment, negative = decrease
[7] = baseline before treatment, 4 subjects
[8] = female, New Zealand White, rabbit, in vivo
[9] = Day 28, 1 and 20 mg/mL groups, female rabbits

For CC/C(=C(\c1ccccc1)c1ccc(OCCN(C)C)cc1)c1ccccc1.O=C(O)CC(O)(CC(=O)O)C(=O)O [tamoxifen citrate, (Z) 2-[4-(1,2-diphenyl-1-butenyl)phenoxy]-N, N-dimethylethanamine 2-hydroxy-1,2,3-propanetricarboxylate], the “drop-outs, serious adverse events, deaths” value [1] was “no patient drop-outs, serious adverse events, or deaths”, the “vaginal irritation (erythema, edema scores)” value (female rabbits; 1 and 20 mg/mL intravaginal once daily, 28 days) was “no test article-related vaginal irritation” and the “vaginal irritation during recovery period” value (female rabbits; 14-day recovery period) was “no signs of vaginal irritation”. For the same compound, the “vaginal irritation compared with vehicle control” value (female rabbits; low and high doses (1 and 20 mg/mL), 28 days) was “did not appear to be any more irritating than the vehicle control”, the “Vaginal Dryness Month 3, median (VAS)” value [2, 5] was 3.0 and the “Vaginal Dryness, Paired Difference enrollment to month 3, median” value [2, 6] was −5.5. The “Vaginal Dryness Enrollment, median (VAS)” value [2, 7] was 8.0, the “pH Month 3, median” value [3, 5] was 5.0 and the “vaginal pH, Paired Difference enrollment to month 3, median” value [3, 6] was −2.0. For the same compound, the “lowering of vaginal pH compared with conjugated estrogens” value ([3]; after 3 months, twice per week regimen) was “as effective as conjugated estrogens” and the “pH Enrollment, median” value [3, 7] was 7.1.

In the case of CC/C(=C(\c1ccccc1)c1ccc(OCCN(C)C)cc1)c1ccccc1 [Tamoxifen, 1-(p-dimethylamino-ethoxphenyl)-2-ethyl-1,2-diphenylethylene, reference compound], the “Mean AUC0-t, range over dose groups” value (in vivo; [8]) is reported as 8.85 to 26.5 ng·h/mL, the “Mean Cmax, range over dose groups” value (in vivo; [8]) is reported as 0.824 to 2.33 ng/mL and the Tmax (in vivo; female, New Zealand White, rabbit, in vivo, Median Tmax, range over dose groups) is reported as 0.5 to 1 h. For the same compound, the Tmax (in vivo; female, New Zealand White, rabbit, in vivo, Tmax (median)) was 1 h, the “time to steady state concentrations” value ([4]; after initiation of therapy) was “about 4 weeks” and the “average steady state plasma concentration” value ([4]; once daily for 3 months) was 122 ng/mL.

With CC/C(=C(\c1ccccc1)c1ccc(OCCNC)cc1)c1ccccc1 [N-Desmethyltamoxifen] the “Tmax (median)” value (in vivo; rabbit, in vivo) was 1 h.

With CCC(=C(c1ccc(O)cc1)c1ccc(OCCN(C)C)cc1)c1ccccc1 [4-Hydroxytamoxifen] the “Ratio of high to low mean values, AUC0-t/Dose” value (in vivo; [9]) was 3.16, the “Ratio of high to low mean values, Cmax/Dose” value (in vivo; [9]) was 4.24 and the “Ratio of mean metabolite to Tamoxifen AUC0-t values” (in vivo; Day 28, High Dose 20 mg/mL, female rabbits) was 0.148. The “Ratio of mean metabolite to Tamoxifen AUC0-t values” (in vivo; Day 28, Low Dose 1 mg/mL, female rabbits) was 0.0702 and the “Median Tmax, range over dose groups” value (in vivo; rabbit, in vivo) was 1 to 8 h.
